# How the values were obtained:
# AGTR1 = biological target: T1, AGTR1 (Homo sapiens, UniProt P30556); experiment: NanoBRET screen HiBiT-AGTR1 in HEK293; type: binding; conditions: AGTR1
# T1 construct: purchased Promega (in-house HiBiT-GPCR construct library, NanoBRET)
# T1 sequence (P30556 1-359): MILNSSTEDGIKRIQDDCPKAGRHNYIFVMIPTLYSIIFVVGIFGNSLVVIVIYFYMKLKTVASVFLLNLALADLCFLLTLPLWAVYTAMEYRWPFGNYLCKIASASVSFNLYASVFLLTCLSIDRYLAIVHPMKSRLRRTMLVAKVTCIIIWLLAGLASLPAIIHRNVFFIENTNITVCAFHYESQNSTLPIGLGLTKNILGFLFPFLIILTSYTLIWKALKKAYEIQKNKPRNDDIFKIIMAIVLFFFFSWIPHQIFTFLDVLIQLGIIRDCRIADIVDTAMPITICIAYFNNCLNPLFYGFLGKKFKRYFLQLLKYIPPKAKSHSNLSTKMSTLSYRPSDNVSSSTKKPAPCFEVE
# Procedure: (§1) Each tracer candidate was screened across the entire library of HiBiT-GPCR constructs using NanoBRET as the detection modality. As depicted in Figure 4A, the specificity of interactions was evaluated through decrease in BRET due to competitive displacement of a bound tracer by excess parental compound. Each tracer was analyzed for binding to each HiBiT-GPCR fusion in the absence and in the presence of competing parental compound. Briefly, HEK293 cells were transfected with HiBiT-GPCR constructs diluted into promoterless DNA to reduce expression and maximize translocation to the cell surface. Each tracer candidate was then screened at concentrations of 1 μM and 0.1 μM across cells expressing these fusions. Cells were treated for 1.5 h with tracer either alone or in the presence of 20 μM competing parental compound (i.e., control). BRET was measured upon addition of purified LgBiT and subsequent complementation with HiBiT genetically fused to a GPCR. The specificity of interactions was assessed through a decrease in BRET signal due to competitive displacement of the bound tracer. To further gauge the robustness of these interactions, the fold response over the control (i.e., BRETtracer/BRETcontrol) was calculated. We chose a 1.5-fold response, which translates to ≥7-fold signal over noise as the minimal threshold required to score an interaction as positive. […]. Below we highlight the screening results obtained for our exemplary fluorescent tracers based on Clozapine, Amitriptyline and AZD1283.
# (§2) HiBiT-GPCR DNA constructs were diluted in 10 mM Tris pH 8 to a final concentration of 0.01 μg/μL, arrayed in 96-well plates and stored at −20 °C. For transfection, HEK293 cells were suspended in Opti-MEM (without phenol red) supplemented with 2% fetal bovine serum (Seradigm) and 100 units/mL penicillin–streptomycin (Gibco) at a final concentration of 220,000 cells/mL and dispensed into white 96-well plates at 90 μL/well. Subsequent transfections and screens were carried using an Agilent Bravo Automated Liquid Handling Platform. First, the 96-well HiBiT DNA arrays were diluted 25-fold in Opti-MEM (without serum or phenol red) to a final concentration of 0.0004 μg/μL and 20 μL of the diluted DNAs were transferred into new 96-well plates. Next, promoterless carrier DNA (1 μg/μL) was diluted 25-fold (0.04 μg/μL) and then dispensed into the diluted arrays at 20 μL/well. Following brief mixing, Viafect transfection reagent (Promega) diluted 16-fold into Opti-MEM was dispensed into the plates at 40 μL/well. After mixing by pipetting, plates were incubated for 10 min on the pipetting station deck. The DNA-transfection reagent complexes were then added to plates containing cells. To facilitate the screen, 10 μL of DNA-transfection reagent complexes were added in duplicates to the top 4 and bottom 4 rows, resulting in two identical 48-well arrays per plate. Plates with transfected cells were incubated for 18–20 h at 37 °C/5% CO2. A screen of each tracer across the entire library using two different concentrations requires duplicate plates of transfected cells. Depending on the number of tracers being screened, transfections can be scaled up using the same ratios. The next day, for each tracer, four 20× screening solutions in tracer dilution buffer (Promega) were prepared: two duplicates at final concentration of 20 μM and two duplicates at a final concentration of 2 μM. A competing unmodified compound was added to one of each duplicate at a final concentration of 400 μM. The four resulting solutions were diluted 4-fold in Opti-MEM without serum or phenol red to generate 5× solutions (5 µM and 0.5 µM tracer +/− 100 μM competing compound). To screen the library, a BioTek MultiFlo FX liquid dispenser was used to dispense 22.5 µL of tracer solution to the top 4 rows and 22.5 µL tracer + competing compound solution to the 4 bottom rows. Plates were briefly mixed on an orbital shaker and incubated for 1.5 h at room temperature. […]
# GRM4 = biological target: T2, GRM4 (Homo sapiens, UniProt Q14833); experiment: NanoBRET screen HiBiT-GRM4 in HEK293; type: binding; conditions: GRM4
# T2 construct: purchased Promega (in-house HiBiT-GPCR construct library, NanoBRET)
# T2 sequence (Q14833 33-912): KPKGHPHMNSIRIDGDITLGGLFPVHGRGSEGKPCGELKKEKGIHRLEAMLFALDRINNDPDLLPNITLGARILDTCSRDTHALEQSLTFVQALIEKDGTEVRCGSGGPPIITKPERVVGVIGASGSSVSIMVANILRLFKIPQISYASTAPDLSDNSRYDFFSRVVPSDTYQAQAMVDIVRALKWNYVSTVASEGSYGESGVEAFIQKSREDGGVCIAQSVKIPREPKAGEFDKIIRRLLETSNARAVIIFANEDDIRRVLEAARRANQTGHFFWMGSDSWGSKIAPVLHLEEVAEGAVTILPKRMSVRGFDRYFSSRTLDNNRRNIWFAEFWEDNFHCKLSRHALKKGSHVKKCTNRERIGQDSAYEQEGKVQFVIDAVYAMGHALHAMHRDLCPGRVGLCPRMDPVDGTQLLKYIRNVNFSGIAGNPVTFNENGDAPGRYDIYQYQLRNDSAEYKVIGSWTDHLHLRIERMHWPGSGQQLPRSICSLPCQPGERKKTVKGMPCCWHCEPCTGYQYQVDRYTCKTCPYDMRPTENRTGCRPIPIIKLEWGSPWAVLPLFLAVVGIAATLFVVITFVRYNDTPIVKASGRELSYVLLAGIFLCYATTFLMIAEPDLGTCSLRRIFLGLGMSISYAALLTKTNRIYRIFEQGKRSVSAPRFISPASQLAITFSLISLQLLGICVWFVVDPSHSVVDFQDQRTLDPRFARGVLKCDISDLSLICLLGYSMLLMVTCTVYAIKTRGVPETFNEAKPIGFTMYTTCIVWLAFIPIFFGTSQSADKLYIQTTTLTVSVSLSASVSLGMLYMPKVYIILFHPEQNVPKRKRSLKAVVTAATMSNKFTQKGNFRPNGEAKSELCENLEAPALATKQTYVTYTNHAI
# Procedure: as §1, §2
SMILES,NanoBRET Fold Response (AGTR1; tracer 0.1μM),NanoBRET Fold Response (AGTR1; tracer 1μM),NanoBRET Fold Response (GRM4; tracer 0.1μM),NanoBRET Fold Response (GRM4; tracer 1μM),NanoBRET Fold Response (AGTR1; 0.1μM),NanoBRET Fold Response (AGTR1; 1μM),NanoBRET Fold Response (GRM4; 0.1μM),NanoBRET Fold Response (GRM4; 1μM)
COc1ccccc1N1CCN(CCCCN2C(=O)c3ccc(CNC(=O)CCOCCOCCOCCOCCNC(=O)CCc4ccc5n4[B-](F)(F)[N+]4=C(c6ccc[nH]6)C=CC4=C5)cc3C2=O)CC1 [NAN-190-2-NB590],1.04,1.11,0.98,0.97,,,,
O=C(CCOCCOCCOCCOCCNC(=O)CCc1ccc2n1[B-](F)(F)[N+]1=C(c3ccc[nH]3)C=CC1=C2)NCCCN1CCN(C2=Nc3ccccc3Oc3ccc(Cl)cc32)CC1 [Loxapine-a-2-NB590],0.96,1.08,1.04,0.99,,,,
CCCn1c(=O)c2[nH]c(-c3ccc(OCC(=O)NCCNC(=O)CCOCCNC(=O)c4ccc(CNC(=O)CCc5ccc6n5[B-](F)(F)[N+]5=C(c7ccc[nH]7)C=CC5=C6)cc4)cc3)nc2n(CCC)c1=O [XAC-3-NB590],1.24,1.19,1.03,1.07,,,,
CCOC(=O)c1cc(C#N)c(N2CCC(C(=O)NS(=O)(=O)Cc3ccccc3/C=C/C(=O)NCCNC(=O)CCc3ccc4n3[B-](F)(F)[N+]3=C(c5ccc[nH]5)C=CC3=C4)CC2)nc1C [AZD1283-1-NB590],,,,,1.01,1.05,1.06,1.07

# Source: paper PMC8151276, “An Integrated Approach toward NanoBRET Tracers for Analysis of GPCR Ligand Engagement” (Molecules, 2021)
